In patent publication US20260027071A1, “COMPOSITION FOR PROMOTING COLLAGEN PRODUCTION COMPRISING AMIDATED AMINO ACID” (KYUNGPOOK NATIONAL UNIVERSITY INDUSTRY-ACADEMIC COOPERATION …, priority 2022, published 2026):
Entries after “also recorded” stand apart in the source; their conditions may differ.

How the values were obtained:
[1] = tested on: Human dermal fibroblasts (HDF); conditions: 48 h
Method: (§2) Human dermal fibroblasts (HDF) extracted from adult skin were obtained from Cascade Biologics (Portland, OR, USA), and human articular chondrocytes (HAC), human follicle dermal papilla cells (HFCPC), human aortic endothelial cells (HAoEC), and human osteoblasts (HOB) were obtained from PromoCell (Heidelberg, Germany). The cells were cultured in a closed incubator at 37° C. in humidified air comprising 5% CO2. The growth medium for HDF consisted of Iscove's Modified Dulbecco's Medium (IMDM) (Gibco BRL, Grand Island, NY, USA) supplemented with 10% fetal bovine serum (Hyclone, South Logan, UT) and 1% antibiotics (100 U·mL^−1 penicillin, 0.1 mg·mL^−1 streptomycin).
(§3) The cell viability was evaluated using the MTT assay. Briefly, HDF (1×10^4 cells per well), HAC (5×10^3 cells per well), HFDPC (1×10^4 cells per well), HAoEC (5×10^3 cells per well), and HOB (2×10^3 cells per well) were cultured in growth media in a 96-well culture plate for 24 hours, followed by treatment with each drug for 48 hours. After discarding the media, the cells were incubated at 37° C. for 2 hours in fresh growth media (100 μL) containing 1 mg·mL^−1 MTT (Amresco, Solon, OH, USA). The media was removed by aspiration, and the formazan dye accumulated inside the cells was dissolved in 100 μL of dimethyl sulfoxide. The absorbance of the solution was measured at 570 nm using a Spetrostar Nano microplate reader (BMG LABTECH GmbH, Ortenberg, Germany).

[2] = tested on: human dermal fibroblasts; experiment: Wound healing (wound closure) assay, Oris cell migration kit; type: cell-based; conditions: HDF
Method: Wound closure analysis was performed using the Oris™ Universal Cell Migration Assembly kit (Platinus Technologies, WI, USA) according to the manufacturer's instructions. The Oris™ stoppers were inserted into each well of the Oris™-compatible 96-well plate, and the plate was inverted to check for complete stopper attachment. A suspension of human dermal fibroblasts in IMDM was added to each well (1×10^4 cells in 100 μL per well) and incubated for 12 hours to allow cell attachment. Then, the stoppers were removed using the stopper tool, and the medium was aspirated using a pipette. The wells were gently washed with 100 μL PBS to remove unattached cells, and the attached cells were treated with drugs in 100 μL culture medium for the specified time, respectively. Images of the wounds were obtained using a phase-contrast microscope (Eclipse TS 100, Nikon Instruments Inc., Melville, NY, USA). The wound areas in the images were quantified using the NIH Image J program. Wound closure (%) was calculated using the following equation: Wound closure (%)=[(A0−At)/A0]×100, where A0 is the area of the original wound and At is the wound area measured at the specified time.

[3] = tested on: Human dermal fibroblasts (HDF); experiment: Collagen protein in conditioned media (Sircol Collagen Assay) of human dermal fibroblasts; type: cell-based; conditions: for collagen production (collagen levels secreted into the media): HDF treated at 1 mM, result in words
Method: (§1) The collagen protein levels in the conditioned media were evaluated using the Sircol™ Collagen Assay (Biocolor, Antrim, UK) according to the manufacturer's instructions. […] After discarding the media, the cells were washed with 500 μL of phosphate-buffered saline (PBS), then incubated in 1 mL of serum-free media for another 24 hours. A 1.0 mL media sample (either conditioned media or fresh media as a negative control) was transferred to a microcentrifuge tube, mixed with 100 μL of collagen isolation and concentration reagent, and incubated overnight at 4° C. The samples were centrifuged at 13,000×g for 10 minutes at 4° C., and the supernatant was carefully removed using a pipette without disturbing the pellet. Each tube was then added with 500 μL of Sircol dye reagent, inverted five times, and shaken at room temperature for 30 minutes. After centrifugation, the supernatant was discarded, and the pellet was washed with 500 μL of cold acid-salt washing reagent, followed by another centrifugation step. The pellet was then dissolved in 250 μL of alkali reagent, and a 200 μL portion was transferred to a 96-well plate. The optical density of the solution was read at 555 nm using a Spectrostar Nano microplate reader (BMG LABTECH GmbH, Ortenberg, Germany).

[4] = tested on: Human dermal fibroblasts (HDF); experiment: Cell viability / proliferation (MTT assay) in human dermal fibroblasts; conditions: for cell proliferation (MTT reduction): concentration series (FIGS. 13a to 13f)
Method: as §2, §3

[5] = tested on: human articular chondrocytes (HAC); experiment: Collagen protein (Sircol Collagen Assay) in human articular chondrocytes; type: cell-based; conditions: for increase in collagen production compared to the control: absence of TGF-β1
Method: as §1

[6] = tested on: human articular chondrocytes (HAC); experiment: Cell viability / proliferation (MTT assay) in human articular chondrocytes; type: cell-based; conditions: for cell viability compared to the control group: concentration series (FIGS. 13g to 13l)
Method: The cell viability was evaluated using the MTT assay.

[7] = tested on: human osteoblasts (HOB); experiment: Collagen protein (Sircol Collagen Assay) in human osteoblasts; type: cell-based; conditions: 1 mM
Method: as §1

[8] = tested on: human aortic endothelial cells (HAoEC); experiment: Collagen protein (Sircol Collagen Assay) in human aortic endothelial cells; type: cell-based; conditions: 1 mM
Method: as §1

[9] = tested on: human follicle dermal papilla cells (HFCPC); experiment: Collagen protein (Sircol Collagen Assay) in human follicle dermal papilla cells; type: cell-based; conditions: 1 mM
Method: as §1

[10] = HDF, 1 mM each, absence of TGF-β1 (FIG. 5a)
[11] = HDF, concentration series (FIGS. 13a to 13f)

Molecule: O=C1O[C@H]([C@@H](O)CO)C(O)=C1O [ascorbic acid, reference compound]
- concentrations with no effect on cell viability [1]: ≤ 1000 µM
- change in wound closure induced by treatment ([2]; 24 hours after treatment): 9.1%
- change in wound closure induced by treatment ([2]; after 12 hours of treatment): 2.5%
- collagen production (collagen levels secreted into the media) [3]: increased collagen production
- increase in collagen production compared to the control [3, 10]: 23.1%
- collagen production ([3]; HDF, 3 and 5 mM): significantly reduced
- concentrations at which collagen production increased ([3]; HDF, non-cytotoxic concentrations (FIG. 10b)): 10 to 1000 µM

Molecule: Cl.N[C@H]1C(O)O[C@H](CO)[C@@H](O)[C@@H]1O (stereo partly drawn) [glucosamine, glucosamine HCl, reference compound]
- cell proliferation (MTT reduction) ([4]; HDF): did not affect cell proliferation
- collagen production ([5]; 0.5 mM): increased collagen production
- increase in collagen production compared to the control ([5]; 0.5 mM): 147.6%
- increase in collagen production compared to the control ([3]; HDF, 0.5 mM, absence of TGF-β1): 118.6%
- collagen production [3, 11]: increased collagen production
- cell viability ([6]; HAC, 0.5 mM): without affecting cell viability

Molecule: Cl.NCC(N)=O [glycinamide, Glycinamide HCl]
- collagen production [7]: most effective among the amidated amino acids
- collagen production effect [7]: 433.8%
- collagen production [8]: most effective among the amidated amino acids
- collagen production [9]: most effective among the amidated amino acids
- cell viability ([4]; HDF treated at 1 mM, result in words): no significant change in cell viability
- cell proliferation (MTT reduction) ([4]; HDF): did not affect cell proliferation
- change in wound closure induced by treatment ([2]; 24 hours after treatment): 19.2%
- change in wound closure induced by treatment ([2]; after 12 hours of treatment): 6.3%
- wound closure ([2]; treated alone, up to 48 hours (FIG. 8b)): promoted wound closure
- collagen production ([5]; 0.5 mM): enhancing collagen production
- increase in collagen production compared to the control ([5]; 0.5 mM): 181.3%
- collagen production ([5]; 1 mM): most effective among the amidated amino acids
- increase in collagen production (greatest effect) ([5]; 2 mM): 238.6%
- collagen production (collagen levels secreted into the media) ([3]; HCl): most effective; also recorded: highest collagen production-promoting effect
- collagen production (collagen levels secreted into the media) ([3]; listed as glycylamine, HCl): superior collagen-promoting effect compared to all free amino acids
- change in collagen production, individual treatment ([3]; HDF, 100 μM): 27.2%
- increase in collagen production compared to the control ([3]; HDF, 0.5 mM, absence of TGF-β1): 139.2%
- change in collagen production, individual treatment ([3]; HDF, 1000 μM): 75.7%
- increase in collagen production compared to the control [3, 10]: 68.2%
- change in collagen production induced by individual treatment ([3]; HDF, FIG. 7b, concentration not given): 67.4%
- collagen production [3, 11]: increased collagen production in a concentration-dependent manner
- cell viability compared to the control group ([6]; HAC): slightly but significantly increased cell viability

Molecule: C[C@H]1[C@H](C)CC[C@]2(C(=O)O)CC[C@]3(C)C(=CC[C@@H]4[C@@]5(C)C[C@@H](O)[C@H](O)[C@@](C)(CO)[C@@H]5[C@H](O)C[C@]43C)[C@H]12 [madecassic acid]
- concentrations that reduced cell viability [1]: above 300 μM
- concentrations with no effect on cell viability [1]: below 100 μM
- collagen production ([3]; HDF, 10 μM): decreased

Molecule: TGF-β1: Recombinant human TGF-β1 protein purchased from R&D Systems
- cell proliferation compared to the control ([4]; HDF (FIGS. 14a to 14d)): better cell proliferation compared to the control
- cell proliferation (MTT reduction) ([4]; HDF): increased the proliferation
- increase in number of viable cells compared to the control ([4]; HDF, TGF-β1 10 ng mL^−1, or ascorbic acid 1 mM + glycinamide 1 mM (FIG. 5b)): 44.5%
- wound closure compared to the control ([2]; 12 and 24 hours post-treatment): significantly improved wound closure
- collagen production ([5]; TGF-β1 10 ng mL^−1 alone): effect of enhancing collagen production
- collagen production ([5]; TGF-β1 up to 10 ng mL-1): improved collagen production in a dose-dependent manner
- collagen production ([3]; HDF, TGF-β1 10 ng mL^−1 alone): effect of enhancing collagen production
- collagen production [3, 11]: collagen production enhancement effect that surpassed its cell proliferation effect
- cell proliferation compared to the control ([6]; HAC (FIGS. 14a to 14d)): better cell proliferation compared to the control
- cell viability compared to the control group ([6]; HAC): slightly but significantly increased cell viability
